For eleven molecules, IC50 results are on record in patent US20170022171A1, “2,5-DISUBSTITUTED CYCLOPENTANECARBOXYLIC ACIDS AND THEIR USE” (Bayer Pharma Aktiengesellschaft, priority 2014, published 2017).

What all share (format): biochemical
The target in one test is T1, MMP-8 (Homo sapiens, UniProt P22894).
T1 construct: purchased R&D Systems 908-MP
Kind of test: In vitro MMP-8 inhibition test. From the text:
(§1) The MMP-mediated amidolytic cleavage of a suitable peptide substrate leads to an increase in fluorescent light here too. The signal intensity of the fluorescent light is directly proportional to the enzyme activity. The active concentration of a test compound at which half the enzyme is inhibited (50% signal intensity of the fluorescent light) is reported as the IC50 value.
(§2) Recombinant MMP-8 (from R&D Systems, 908-MP) is chemically activated in accordance with the manufacturer's instructions using APMA. 1 μl of the test compound to be analysed (as a solution in DMSO, suitable concentrations, for example, 1 nM to 30 μM) is pipetted into 24 μl of activated enzyme (final concentration, for example, 0.5 nM) in reaction buffer (50 mM Tris/HCl pH 7.5, 10 mM CaCl2, 150 mM NaCl, 0.05% Brij®-35) in a white 384-hole microtiter plate (MTP). The enzymatic reaction is started by adding the intramolecularly quenched Mca-Pro-Leu-Gly-Leu-Dpa(Dnp)-Ala-Arg-NH2 substrate (final concentration, for example, 10 μM; R&D Systems, ES-001), so as to result in a total test volume of 50 μl. The course of the MMP-8 reaction is measured by measuring the fluorescence intensity (excitation 320 nm, emission 410 nm) over a suitable period of time (for example over 120 min at a temperature of 32° C.).

Another test concerns the target T2, MMP-7 (Homo sapiens, UniProt P09237).
T2 construct: purchased R&D Systems 907-MP
T2 sequence (P09237 95-267): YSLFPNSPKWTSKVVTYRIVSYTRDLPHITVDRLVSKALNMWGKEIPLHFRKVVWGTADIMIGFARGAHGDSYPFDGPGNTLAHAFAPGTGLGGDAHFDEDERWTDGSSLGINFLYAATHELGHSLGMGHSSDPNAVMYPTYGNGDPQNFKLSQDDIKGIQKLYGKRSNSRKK
Kind of test: In vitro MMP-7 inhibition test.
Text: as §1
as §2, with “MMP-7” for “MMP-8”, “907-MP)” for “908-MP)”, “[…]” for “50 μl.”

For a further test, the target named is T3, MMP-1 (Homo sapiens, UniProt P03956).
T3 construct: purchased R&D Systems 901-MP
T3 sequence (P03956 100-469): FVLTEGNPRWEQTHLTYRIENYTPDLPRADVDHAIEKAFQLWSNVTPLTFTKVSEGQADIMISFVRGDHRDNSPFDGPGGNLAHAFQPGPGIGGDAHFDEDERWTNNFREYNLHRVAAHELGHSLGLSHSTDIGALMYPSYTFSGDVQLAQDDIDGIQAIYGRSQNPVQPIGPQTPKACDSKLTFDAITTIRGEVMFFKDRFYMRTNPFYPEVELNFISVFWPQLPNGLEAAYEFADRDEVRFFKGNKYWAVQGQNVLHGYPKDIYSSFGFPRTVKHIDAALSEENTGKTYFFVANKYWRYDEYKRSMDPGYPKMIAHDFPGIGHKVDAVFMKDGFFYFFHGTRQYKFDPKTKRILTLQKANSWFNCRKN
Put plainly: In vitro MMP-1 inhibition test.
Text: as §1
as §2, with “MMP-1” for “MMP-8”, “901-MP)” for “908-MP)”, “2” for “0.5”

The target in another test is T4, MMP-3 (Homo sapiens, UniProt P08254).
T4 construct: purchased R&D Systems 513-MP
Put plainly: In vitro MMP-3 inhibition test.
Text: as §1
as §2, with “MMP-3” for “MMP-8”, “513-MP)” for “908-MP)”, “2” for “0.5”, “Mca-Arg-Pro-Lys-Pro-Val-Glu-Nval-Trp-Arg-Lys(Dnp)-NH2” for “Mca-Pro-Leu-Gly-Leu-Dpa(Dnp)-Ala-Arg-NH2”, “ES-002),” for “ES-001),”, “50” for “50 μl.”

T1 sequence (P22894 101-467): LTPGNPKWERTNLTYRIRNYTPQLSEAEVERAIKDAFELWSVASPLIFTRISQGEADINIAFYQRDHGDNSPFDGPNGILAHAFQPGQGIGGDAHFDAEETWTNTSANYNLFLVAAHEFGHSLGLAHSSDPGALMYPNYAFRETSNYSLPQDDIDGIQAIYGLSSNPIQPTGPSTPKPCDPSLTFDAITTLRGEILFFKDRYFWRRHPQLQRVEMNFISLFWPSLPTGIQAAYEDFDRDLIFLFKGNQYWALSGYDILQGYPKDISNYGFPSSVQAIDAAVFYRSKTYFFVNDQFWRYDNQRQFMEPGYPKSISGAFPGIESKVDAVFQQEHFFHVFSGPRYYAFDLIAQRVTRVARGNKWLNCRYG
T4 sequence (P08254 100-477): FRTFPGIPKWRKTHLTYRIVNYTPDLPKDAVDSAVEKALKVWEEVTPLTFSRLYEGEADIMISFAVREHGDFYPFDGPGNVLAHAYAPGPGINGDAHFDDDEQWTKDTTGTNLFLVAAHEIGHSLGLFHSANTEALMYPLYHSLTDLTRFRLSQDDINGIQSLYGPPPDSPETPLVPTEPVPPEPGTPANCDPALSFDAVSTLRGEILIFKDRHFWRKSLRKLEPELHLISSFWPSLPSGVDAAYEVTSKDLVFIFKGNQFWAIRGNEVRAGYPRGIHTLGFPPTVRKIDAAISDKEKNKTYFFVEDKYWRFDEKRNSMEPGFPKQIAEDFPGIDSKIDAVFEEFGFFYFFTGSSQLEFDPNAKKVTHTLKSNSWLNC

Broadly, the IC50 is the point on the concentration scale where inhibition reaches its midpoint. Read a low IC50 as higher potency. As for “(+)-(1RS,2SR,5RS)-2-{[4-Oxo-6-(trifluoromethyl)-1,2,3-benzotriazin-3(4H)-yl]methyl}-5-{4-[(2-phenylethy)sulphanyl]benzoyl}cyclopentanecarboxylic acid [Example 83]”, the IC50 against MMP-8 was 260 nM; against MMP-7, 160 nM; on MMP-1, above 40 µM; against MMP-3 it was 450 nM.

Consider `O=C(O)[C@@H]1[C@@H](Cn2nnc3ccc(C(F)(F)F)cc3c2=O)CC[C@H]1C(=O)c1ccc(OCc2cccc(N3CCOC3=O)c2)cc1` (single isomer, unassigned) [Example 35, (+)-(1RS,2RS,5SR)-2-(4-{[3-(2-Oxo-1,3-oxazolidin-3-yl)benzyl]oxy}benzoyl)-5-{[4-oxo-6-(trifluoromethyl)-1,2,3-benzotriazin-3(4H)-yl]methyl}cyclopentanecarboxylic acid], for which the half-inhibitory concentration (IC50) against MMP-8 came to 2 nM; at MMP-7, 31 nM; on MMP-1, 2.1 µM; against MMP-3 it was 400 nM.

As for `COc1cccc(COc2ccc(C(=O)[C@H]3CC[C@@H](Cn4nnc5ccc(C)cc5c4=O)[C@@H]3C(=O)O)cc2)c1` (racemic) [Example 106, (+/−)-(1RS,2RS,5SR)-2-{4-[(3-Methoxybenzyl)oxy]benzoyl}-5-[(6-methyl-4-oxo-1,2,3-benzotriazin-3(4H)-yl)methyl]cyclopentanecarboxylic acid], the IC50 worked out at 11 nM against MMP-8, 190 nM at MMP-7, 12 µM at MMP-1 and 450 nM against MMP-3.

Take `O=C(O)[C@@H]1[C@@H](Cn2nnc3ccc(C(F)(F)F)cc3c2=O)CC[C@H]1C(=O)c1ccc(SCc2ccccc2)cc1` (single isomer, unassigned) [Example 75, (+)-(1RS,2RS,5SR)-2-[4-(Benzylsulphanyl)benzoyl]-5-{[4-oxo-6-(trifluoromethyl)-1,2,3-benzotriazin-3(4H)-yl]methyl}cyclopentanecarboxylic acid]: the IC50 at MMP-8 came out at 74 nM; at MMP-7, 340 nM; against MMP-1, 21 µM; against MMP-3 it was 170 nM.

For `Cc1cccc(COc2ccc(C(=O)[C@@H]3CC[C@H](Cn4nnc5ccc(C(F)(F)F)cc5c4=O)[C@H]3C(=O)O)cc2)c1` (single isomer, unassigned) [Example 16, (+)-(1RS,2RS,5SR)-2-{4-[(3-Methylbenzyl)oxy]benzoyl}-5-{[4-oxo-6-(trifluoromethyl)-1,2,3-benzotriazin-3(4H)-yl]methyl}cyclopentanecarboxylic acid], the IC50 against MMP-8 was 65 nM; against MMP-7 it was 190 nM; against MMP-1, 7.1 µM; against MMP-3, 350 nM.

For the molecule `Cc1ccc2nnn(C[C@@H]3CC[C@H](C(=O)c4ccc(OCc5cccc(Cl)c5)cc4)[C@H]3C(=O)O)c(=O)c2c1` (racemic) [Example 103, (+/−)-(1RS,2RS,5SR)-2-{4-[(3-Chlorobenzyl)oxy]benzoyl}-5-[(6-methyl-4-oxo-1,2,3-benzotriazin-3(4H)-yl)methyl]cyclopentanecarboxylic acid], the IC50 against MMP-8 stood at 41 nM; against MMP-7 it was 330 nM; at MMP-1 it was 9.7 µM; against MMP-3, 340 nM.

`O=C(O)[C@@H]1[C@@H](Cn2nnc3ccc(C(F)(F)F)cc3c2=O)CC[C@H]1C(=O)c1ccc(SCc2cccc(Cl)c2)cc1` (single isomer, unassigned) [Example 77, (+)-(1RS,2RS,5SR)-2-{4-[(3-Chlorobenzyl)sulphanyl]benzoyl}-5-{[4-oxo-6-(trifluoromethyl)-1,2,3-benzotriazin-3(4H)-yl]methyl}cyclopentanecarboxylic acid]: the IC50 at MMP-8 stood at 41 nM; against MMP-7, 150 nM; on MMP-1, 2.9 µM; at MMP-3, 100 nM.

Regarding `CCCCCSc1ccc(C(=O)[C@H]2CC[C@@H](Cn3nnc4ccc(C(F)(F)F)cc4c3=O)[C@@H]2C(=O)O)cc1` (racemic) [Example 88, (+/−)-(1RS,2SR,5RS)-2-{[4-Oxo-6-(trifluoromethyl)-1,2,3-benzotriazin-3(4H)-yl]methyl}-5-[4-(pentylsulphanyl)benzoyl]cyclopentanecarboxylic acid], the IC50 came out at 6.2 nM against MMP-8, 120 nM against MMP-7, 2.5 µM at MMP-1 and 96 nM on MMP-3.

Regarding `O=C(O)[C@@H]1[C@@H](Cn2nnc3ccc(C(F)(F)F)cc3c2=O)CC[C@H]1C(=O)c1ccc(OCc2ccc(F)cc2)cc1` (single isomer, unassigned) [Example 13, (+)-(1RS,2RS,5SR)-2-{4-[(4-Fluorobenzyl)oxy]benzoyl}-5-{[4-oxo-6-(trifluoromethyl)-1,2,3-benzotriazin-3(4H)-yl]methyl}cyclopentanecarboxylic acid], the IC50 came to 0.88 nM against MMP-8, 120 nM at MMP-7, 3.3 µM on MMP-1 and 62 nM against MMP-3.

Consider `O=C(O)[C@@H]1[C@@H](Cn2nnc3ccc(C(F)(F)F)cc3c2=O)CC[C@H]1C(=O)c1ccc(SCc2ccc(Cl)c(Cl)c2)cc1` (single isomer, unassigned) [Example 80, (+)-(1RS,2RS,5SR)-2-{4-[(3,4-Dichlorobenzyl)sulphanyl]benzoyl}-5-{[4-oxo-6-(trifluoromethyl)-1,2,3-benzotriazin-3(4H)-yl]methyl}cyclopentanecarboxylic acid], for which the IC50 is 52 nM against MMP-8, 200 nM at MMP-7, 2.5 µM against MMP-1 and 150 nM against MMP-3.

With `CCCCCCOc1ccc(C(=O)[C@@H]2CC[C@H](Cn3nnc4ccc(C(F)(F)F)cc4c3=O)[C@H]2C(=O)O)cc1` (single isomer, unassigned) [Example 58, (+)-(1RS,2RS,5SR)-2-[4-(Hexyloxy)benzoyl]-5-{[4-oxo-6-(trifluoromethyl)-1,2,3-benzotriazin-3(4H)-yl]methyl}cyclopentanecarboxylic acid], the IC50 on MMP-8 is 16 nM; against MMP-7, 180 nM; on MMP-1, 8.4 µM; at MMP-3 it was 300 nM.
